# In patent EP0510473A1, “Thienyl-nonatetraenoic acid derivatives with anti-rheumatic activity” (F. HOFFMANN-LA ROCHE AG, priority 1991, dated 1992):
# Marks after values point to notes of the source that are not given here.
# Assays:
# adjuvant arthritis [1] = test: Established adjuvant arthritis model (chronic adjuvant arthritis test); format: in vivo, male Charles River Lewis rats; conditions: 7 days; for Change in Paw Volume (ml) / Change in body weight(g): difference from day 21 to day 28; for % Change in plasma fibrinogen: relative to vehicle-treated arthritic animals
# adjuvant arthritis [2] = test: as above; format: in vivo, male Charles River Lewis rats; conditions: for Change in Paw Volume (ml) / Change in body weight(g): difference from day 21 to day 28; for % Change in plasma fibrinogen: relative to vehicle-treated arthritic animals
# Procedure: That the compounds of this invention are effective anti-arthritic agents can be seen from the results obtained when these compounds are administered to rats in accordance with the chronic adjuvant arthritis test system disclosed in Billingham and Davies "Handbook of Experimental Pharmacology" (editors J.R. Vane and S.H. Ferreira) Vol. 50/II, pg. 108-144, Springer-Verlag, Berlin, 1979). In this procedure, adjuvant arthritis was induced by the injection on day 0 to 0.10 ml of adjuvant (a suspension of heat-killed, dessicated Mycobacterium butyricum, 0.5% (w/v), in heavy mineral oil containing 0.2% digitonin) subplantarly into the right hind paw ("developing" model) or the base of the tail ("established" model) of male Charles River Lewis rats (120-140 g) that were housed individually and given food and water ad lib. Paw volumes (both hind paws) were measured immediately after injection of the adjuvant. Paw volumes were also measured at selected time intervals to follow the development of inflammation-induced swelling in the arthritic paws by immersion of the paw to the level of the lateral malleolus in a mercury plethysmograph. In the established adjuvant arthritis model [Table 2], the arthritis was allowed to develop untreated for 21 days and then the arthritic animals were divided into experimental groups with approximately equal mean hind paw volumes. Starting on day 21, the arthritic animals were treated by intubation once a day with drugs for 7 days (Tween 80 as vehicle). Arthritic control animals received daily doses of the vehicle only. On day 28, the animals were sacrificed, plasma was collected and plasma fibrinogen levels were determined as described above. Antiinflammatory activity was determined by comparing the change in paw swelling in drug-treated arthritic animals (combined hind paw volume on day 28 minus combined hind paw volume on day 21) with the change in paw swelling in vehicle-treated arthritic animals. Drug-induced changes in plasma fibrinogen were also used to assess the antiinflammatory effects of the test drugs.
# [3] = Serum triglycerides and cholesterol in normal animals treated for 14 days; format: in vivo, rats; conditions: for Cholesterol (% change): serum, normal rats, vs vehicle-treated normal rats
# Procedure: Normal animals were also treated with the test retinoids for 14 days and serum samples were collected for the determination of serum triglycerides and cholesterol. Triglyceride and cholesterol levels in the drug-treated animals were compared with triglyceride and cholesterol levels in vehicle-treated animals.
# adjuvant arthritis [4] = test: Developing adjuvant arthritis model (chronic adjuvant arthritis test); format: in vivo, male Charles River Lewis rats; conditions: for % Change in Paw Volume (day 23) left / % Change in Paw Volume (day 23) right / % Change in plasma fibrinogen: vs vehicle-treated arthritic animals; for Body Weight gain(g): body weight on day 23 minus day 0
# Procedure: That the compounds of this invention are effective anti-arthritic agents can be seen from the results obtained when these compounds are administered to rats in accordance with the chronic adjuvant arthritis test system disclosed in Billingham and Davies "Handbook of Experimental Pharmacology" (editors J.R. Vane and S.H. Ferreira) Vol. 50/II, pg. 108-144, Springer-Verlag, Berlin, 1979). In this procedure, adjuvant arthritis was induced by the injection on day 0 to 0.10 ml of adjuvant (a suspension of heat-killed, dessicated Mycobacterium butyricum, 0.5% (w/v), in heavy mineral oil containing 0.2% digitonin) subplantarly into the right hind paw ("developing" model) or the base of the tail ("established" model) of male Charles River Lewis rats (120-140 g) that were housed individually and given food and water ad lib. Paw volumes (both hind paws) were measured immediately after injection of the adjuvant. Paw volumes were also measured at selected time intervals to follow the development of inflammation-induced swelling in the arthritic paws by immersion of the paw to the level of the lateral malleolus in a mercury plethysmograph. In the developing adjuvant arthritis model [Table 1], drugs were administered once a day (starting on the day of adjuvant injection and continuing for 23 days) by intubation using Tween 80 (polyoxyethylene sorbitan mono-oleate) at a dose of 0.25 ml/100 g body weight as the vehicle. Arthritic control rats received daily doses of the vehicle only. On day 23, i.e., approximately 24 hours after the last dose of drug, the rats were sacrificed, plasma was collected and plasma fibrinogen levels were determined (ammonium sulfate turbidimetric method) as described by Exner et al., Amer. J. Clin. Path., 71:521-527 (1979). Anti-inflammatory activity of the test drugs were determined by comparing the extent of paw swelling (paw volume on day 23 minus the paw volume on day 0) in drug-treated arthritic rats with the extent of paw swelling in the vehicle-treated arthritic rats. Drug induced decreases in the level of plasma fibrinogen, an acute phase protein that is elevated in the plasma of rats with adjuvant-induced arthritis, were also used to quantitiate the anti-inflammatory activity.
# [5] = 75 µMoles/Kg p.o. tween 80, 7 days
# [6] = 25 μ Moles/Kg Po. Tween 80, daily for 23 days
# [7] = 75 μ Moles/Kg Po. Tween 80, daily for 23 days
smiles,measurement,setting,value
CCCCOc1ccsc1/C=C/C(C)=C/C=C/C(C)=C/C(=O)O,Change in Paw Volume (ml),adjuvant arthritis [1]; 75 µMoles/Kg i.p. corn oil,-0.59* (1.14) ml
same,Change in body weight(g),adjuvant arthritis [1]; 75 µMoles/Kg i.p. corn oil,11(10) g
same,% Change in plasma fibrinogen,adjuvant arthritis [1]; 75 µMoles/Kg i.p. corn oil,-55* %
CCCCCCCCCOc1cc(C)sc1/C=C/C(C)=C/C=C/C(C)=C/C(=O)O,Change in Paw Volume (ml),adjuvant arthritis [2]; [5],0.06* (1.03) ml
same,Change in body weight(g),adjuvant arthritis [2]; [5],15(14) g
same,% Change in plasma fibrinogen,adjuvant arthritis [2]; [5],-25* %
CC1=C(/C=C/C(C)=C/C=C/C(C)=C/C(=O)Nc2ccc(O)cc2)C(C)(C)CCC1 [4-hydroxyphenyl retinamide],hypertriglyceridemia,[3]; no dose given,hypertriglyceridemia
same,serum cholesterol elevation,[3]; no dose given,serum cholesterol elevation
"CCCCCCCCCOc1ccsc1/C=C/C(C)=C/C=C/C(C)=C/C(=O)O [the 1st table, row 4]",Cholesterol (% change),[3]; 25 μ Moles/Kg Po. Tween 80,-14* %
same,Cholesterol (% change),[3]; 75 μ Moles/Kg Po. Tween 80,-25* %
same,% Change in Paw Volume (day 23) left,adjuvant arthritis [4]; [6],-50* %
same,% Change in Paw Volume (day 23) right,adjuvant arthritis [4]; [6],-50* %
same,% Change in plasma fibrinogen,adjuvant arthritis [4]; [6],-45* %
same,Body Weight gain(g),adjuvant arthritis [4]; 25 μ Moles/Kg Po. Tween 80,31(37) g
same,% Change in Paw Volume (day 23) left,adjuvant arthritis [4]; [7],-84* %
same,% Change in Paw Volume (day 23) right,adjuvant arthritis [4]; [7],-68* %
same,% Change in plasma fibrinogen,adjuvant arthritis [4]; [7],-55* %
same,Body Weight gain(g),adjuvant arthritis [4]; 75 μ Moles/Kg Po. Tween 80,27(30) g
"CC1=C(/C=C/C(C)=C/C=C/C(C)=C/C(=O)Nc2ccc(O)cc2)C(C)(C)CCC1 [the 1st table, row 6, 4-hydroxyphenyl retinamide, reference compound]",Cholesterol (% change),[3]; 75 μ Moles/Kg Po. Tween 80,+66* %
same,% Change in Paw Volume (day 23) left,adjuvant arthritis [4]; [7],-51* %
same,% Change in Paw Volume (day 23) right,adjuvant arthritis [4]; [7],-49* %
same,% Change in plasma fibrinogen,adjuvant arthritis [4]; [7],-42* %
same,Body Weight gain(g),adjuvant arthritis [4]; 75 μ Moles/Kg Po. Tween 80,39(37) g
"CCCCCCCCCOc1ccsc1/C=C/C(C)=C/C=C/C(C)=C/C(=O)O [the 2nd table, row 3]",Change in Paw Volume (ml),"adjuvant arthritis [2]; 25 µMoles/Kg p.o., 7 days",0.15*(0.84) ml
same,Change in body weight(g),"adjuvant arthritis [2]; 25 µMoles/Kg p.o., 7 days",9(14) g
same,% Change in plasma fibrinogen,"adjuvant arthritis [2]; 25 µMoles/Kg p.o., 7 days",-32* %
same,Change in Paw Volume (ml),adjuvant arthritis [2]; [5],-0.63*(0.61) ml
same,Change in body weight(g),adjuvant arthritis [2]; [5],5*(15) g
same,% Change in plasma fibrinogen,adjuvant arthritis [2]; [5],-34* %
"CCCCCCCCCOc1ccsc1/C=C/C(C)=C/C=C/C(C)=C/C(=O)O [the 2nd table, row 5]",Change in Paw Volume (ml),adjuvant arthritis [1]; 10 µMoles/Kg i.p. corn oil,0.18* (0.86) ml
same,Change in body weight(g),adjuvant arthritis [1]; 10 µMoles/Kg i.p. corn oil,11(15) g
same,% Change in plasma fibrinogen,adjuvant arthritis [1]; 10 µMoles/Kg i.p. corn oil,-18* %
